# According to US20040147562A1, “Methods of treating conditions associated with an EDG-1 receptor” (priority 2002, published 2004):
# Key:
# [1] = target: T1, Edg-6 (Homo sapiens, UniProt O95977); experiment: Intracellular calcium (FLIPR) assay, HTC cells expressing Edg-6; type: cell-based
# T1 construct: expressed in transfected cells; host or cells: HTC rat hepatoma cells
# T1 sequence (O95977 1-384): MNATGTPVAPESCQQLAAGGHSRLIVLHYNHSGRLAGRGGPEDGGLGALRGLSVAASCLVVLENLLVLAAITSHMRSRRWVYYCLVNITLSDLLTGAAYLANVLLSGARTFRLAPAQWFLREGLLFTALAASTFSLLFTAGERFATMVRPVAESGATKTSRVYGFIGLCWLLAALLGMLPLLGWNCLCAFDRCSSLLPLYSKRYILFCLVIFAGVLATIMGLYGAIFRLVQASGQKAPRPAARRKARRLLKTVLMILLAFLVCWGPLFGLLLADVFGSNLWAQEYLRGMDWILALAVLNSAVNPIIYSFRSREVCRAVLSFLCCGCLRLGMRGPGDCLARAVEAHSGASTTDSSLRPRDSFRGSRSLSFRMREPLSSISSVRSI
# [2] = test system: murine CD4 T cells; experiment: Murine CD4 T cell chemotactic response to exodus-2; type: cell-based
# Experimental: To assess this modulation and to test the effects of Edg-1 agonists and antagonists on this effect, murine CD4 T cells chemotactic responses to exodus-2 were tested in the presence of S1P and the Edg-1 agonist 104. These experiments were performed according to the migration and invasion assay protocols described in Section 7.12, below.
# The effects of Edg-1 antagonists on S1P regulation of the chemotactic response to exodus-2 were also assessed. This experiment was performed according to the migration and invasion assay protocols described in Section 7.12, below. […] Thus, these Edg-1 antagonists can antagonize both aspects of the regulation by S1P of exodus-2-mediated chemotaxis.
# (§1) Cells were plated in a 24 well format using Fluoroblok filter insert plates ([…] pore size) or Fluoroblok matrigel coated filter insert plates (Becton Dickinson, San Diego, Calif.). The assay was a modified Boyden Chamber assay in which a cell suspension (1×10^5 cells/ml) was prepared in serum free medium and added to the top chamber. LPA or S1P (doses ranged from 0.1-10 μM in serum free medium) was added to the bottom chamber. Following a 20-24 hour incubation period, the number of cells migrating or invading into the lower chamber was quantitated by transferring the filter insert into a fresh 24-well plate containing 4 μg/ml calcein AM (Molecular Probes, Sunnyvale, Calif.) in Hank's Balanced Salt Solution and staining for one hour.
# (§2) Detection was via fluorescent readout at 450 nm excitation/530 nm emission using a fluorimeter. The level of fluorescence correlated with cell number.
# [3] = test system: human Edg-1 receptors; experiment: Intracellular calcium (FLIPR) assay, HTC cells expressing Edg-1; type: cell-based; conditions: Edg-1 relative to other Edg receptors
# Experimental: The compounds were tested in HTC cells expressing human Edg-1 receptors. […] The compounds were tested in this recombinant system first, and subsequently tested in cell lines expressing Edg-1 (in addition to other Edg receptors).
# […] receptors such as Edg-1, couple to calcium effector pathways, and result in increases in intracellular calcium following receptor activation (An, 1998, J. Cell Biochem. Supp 30-31:147-157). This biological response lends itself to a very efficient, high-throughput screen using a Fluorescence Imaging Plate Reader (FLIPR; Molecular Devices, Sunnyvale, Calif.). The FLIPR system is a real-time, cell-based assay system with continuous fluorescence detection using a cooled CCD camera. The FLIPR system was used to develop an Edg-1 receptor screen. Rat hepatoma cells stably expressing Edg-1/3i3 chimera or Edg-1 and Gqi were plated on 384-well plates and loaded with a calcium dye loading kit (Molecular Devices, Sunnyvale, Calif.) for 1 hour at room temperature. Cells were then placed on the FLIPR^384 (Molecular Devices, Sunnyvale, Calif.) and excited by an argon laser at 488 nm. The data for the entire 384-well plate was updated every second. An integrated robotic pipettor allowed for simultaneous compound addition into each individual well in the plate.
# [4] = test system: mouse splenic CD4 T cells; experiment: Lymphocyte migration in mouse dorsal air-pouch model; type: in vivo; conditions: lavage after 24 hours, FIG. 15
# Experimental: To test migration of mouse T cells in vivo, the ability of exodus-2 to attract mouse lymphocytes was assessed in the mouse dorsal air-pouch model. In these experiments, 0.5 ml 1 μM exodus-2 was introduced into a dorsal air-pouch produced by injecting 5 ml of filtered air subcutaneously. Mouse splenic CD4 T cells were fluorescently labeled with FM-DiI (Molecular Probes, Inc., Eugene, Oreg.), then treated with S1P (1 μM), 102, or 104. The treated CD4T cells were introduced into the peritoneal cavity. After 24 hours, lavage (1 ml) from the dorsal air pouch was assayed for fluorescence.
# [5] = test system: human umbilical vein endothelial cells; experiment: Trans-matrigel chemotaxis / invasion assay with HUVECs (modified Boyden chamber); type: cell-based
# Experimental: In addition to Edg-1, other Edg receptors are also implicated in S1P stimulated chemotaxis, including Edg-3 and Edg-6. To assess the relative roles of the Edg-1 receptors and Edg-3 receptors in S1P stimulated chemotaxis, the ability of S1P to evoke trans-matrigel chemotaxis was tested in the presence of the Edg-1 antagonist 101, the Edg-3 antagonist 301, and the combination of 101 and 301. These experiments were performed according to the migration and invasion assay protocols described in Section 7.12, below. The Edg-3 antagonist 301, 3-Methyl-2-phenyl-quinoline-4-carboxylic acid 4-fluoro-benzylamide, is extensively described in co-pending U.S. application Ser. No. 10/390,426, which is incorporated by reference in its entirety. 301 is identified as compound 101 in U.S. application Ser. No. 10/390,426. Further, 301 is commercially available from Specs (The Netherlands) as compound number AK-968/12971392.
# S1P is a strong chemoattractant to human PBMCs. […] Several migration assays were performed to test this hypothesis and to determine the effect of Edg-1 agonists and antagonists on S1P mediated chemotaxis. The migration assays were performed according to the protocol described in Section 7.12, below. The results of theses assays are presented in FIG. 6, FIG. 7, FIG. 8, FIG. 9 and FIG. 13.
# as §1, §2
# [6] = target: T2, Edg-3 (Homo sapiens, UniProt Q99500); experiment: Intracellular calcium (FLIPR) assay, HTC cells expressing Edg-3; type: cell-based
# T2 construct: expressed in transfected cells; host or cells: HTC rat hepatoma cells
# T2 sequence (Q99500 whole entry): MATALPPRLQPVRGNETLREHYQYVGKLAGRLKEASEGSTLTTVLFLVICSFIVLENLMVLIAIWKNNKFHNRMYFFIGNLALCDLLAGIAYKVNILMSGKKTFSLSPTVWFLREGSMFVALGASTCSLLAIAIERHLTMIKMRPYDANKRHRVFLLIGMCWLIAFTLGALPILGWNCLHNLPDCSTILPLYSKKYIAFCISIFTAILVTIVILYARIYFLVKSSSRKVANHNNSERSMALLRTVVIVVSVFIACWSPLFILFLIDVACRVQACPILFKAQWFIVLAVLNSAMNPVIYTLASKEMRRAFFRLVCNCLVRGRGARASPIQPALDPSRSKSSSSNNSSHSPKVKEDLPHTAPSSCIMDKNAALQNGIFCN
# [7] = target: T3, Edg-5 (Homo sapiens, UniProt O95136); experiment: Intracellular calcium (FLIPR) assay, HTC cells expressing Edg-5; type: cell-based
# T3 construct: expressed in transfected cells; host or cells: HTC rat hepatoma cells
# T3 sequence (O95136 whole entry): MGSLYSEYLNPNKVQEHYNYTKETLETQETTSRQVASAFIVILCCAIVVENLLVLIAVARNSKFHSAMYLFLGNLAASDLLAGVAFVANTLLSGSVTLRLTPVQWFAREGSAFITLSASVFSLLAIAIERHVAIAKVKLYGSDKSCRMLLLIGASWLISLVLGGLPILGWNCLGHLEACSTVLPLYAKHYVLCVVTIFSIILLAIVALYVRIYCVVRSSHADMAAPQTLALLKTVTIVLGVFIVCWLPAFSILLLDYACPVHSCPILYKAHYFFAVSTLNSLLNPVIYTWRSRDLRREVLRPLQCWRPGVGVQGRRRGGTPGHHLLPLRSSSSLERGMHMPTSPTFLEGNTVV
# [8] = target: T4, Edg-8 (Homo sapiens, UniProt Q9H228); experiment: Intracellular calcium (FLIPR) assay, HTC cells expressing Edg-8; type: cell-based
# T4 construct: expressed in transfected cells; host or cells: HTC rat hepatoma cells
# T4 sequence (Q9H228 whole entry): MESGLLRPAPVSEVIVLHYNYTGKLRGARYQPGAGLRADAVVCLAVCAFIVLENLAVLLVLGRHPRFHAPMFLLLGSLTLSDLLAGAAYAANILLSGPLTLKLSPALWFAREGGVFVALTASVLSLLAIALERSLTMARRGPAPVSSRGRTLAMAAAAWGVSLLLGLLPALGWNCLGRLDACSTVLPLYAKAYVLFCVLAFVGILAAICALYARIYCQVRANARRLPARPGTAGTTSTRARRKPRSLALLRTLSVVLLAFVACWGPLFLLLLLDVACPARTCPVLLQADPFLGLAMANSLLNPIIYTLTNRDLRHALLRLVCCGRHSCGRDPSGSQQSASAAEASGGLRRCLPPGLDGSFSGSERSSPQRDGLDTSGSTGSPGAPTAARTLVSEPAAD
# [9] = target: Edg-4 (Homo sapiens, UniProt Q9HBW0); experiment: Intracellular calcium (FLIPR) assay, HTC cells expressing Edg-4; type: cell-based
# Chain of Edg-4 (Q9HBW0 1-340 limits assumed): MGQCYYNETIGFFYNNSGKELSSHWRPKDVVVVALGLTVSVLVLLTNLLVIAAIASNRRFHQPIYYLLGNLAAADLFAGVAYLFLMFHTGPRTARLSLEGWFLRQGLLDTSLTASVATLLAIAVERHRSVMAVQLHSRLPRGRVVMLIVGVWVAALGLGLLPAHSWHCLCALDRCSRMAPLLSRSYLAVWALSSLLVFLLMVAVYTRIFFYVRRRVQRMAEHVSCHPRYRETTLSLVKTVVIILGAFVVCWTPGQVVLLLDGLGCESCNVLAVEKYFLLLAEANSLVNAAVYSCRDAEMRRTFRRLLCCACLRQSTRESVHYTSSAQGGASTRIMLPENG
# [10] = concentrations as high as 20 μM
# [11] = agonist, concentrations as high as 25 μM
smiles,measurement,setting,value
O=C(c1cccnc1)N1N=C(c2ccc(Br)cc2)CC1(O)C(F)(F)F (stereo not shown) [Compound 102],IC50,"[1]; Table 2, S1P-stimulated",> 20 µM
same,inhibition of S1P-stimulated calcium increases in HTC cells expressing Edg-6,[1]; [10],did not inhibit
same,effect on S1P-mediated desensitization of the chemotactic response to exodus-2,"[2]; high concentrations of S1P, FIG. 12",reverse S1P-mediated desensitization
same,effect on S1P-mediated stimulation of the chemotactic response to exodus-2,"[2]; moderate concentrations of S1P, FIG. 12",inhibit S1P-mediated stimulation
same,Fold Selectivity,[3]; inhibition (Table 2),>11.8 Fold
same,reversal of S1P-mediated desensitization in dorsal air-pouch,[4]; co-treatment with S1P,can be reversed
same,inhibition of S1P-induced matrigel invasion,"[5]; HUVEC, 10 μM (FIG. 6)",inhibits S1P-induced matrigel invasion
same,IC50,"[6]; Table 2, S1P-stimulated",> 20 µM
same,inhibition of S1P-stimulated calcium increases in HTC cells expressing Edg-3,[6]; [10],did not inhibit
same,IC50,"[7]; Table 2, S1P-stimulated",> 20 µM
same,inhibition of S1P-stimulated calcium increases in HTC cells expressing Edg-5,[7]; [10],did not inhibit
same,IC50,"[8]; Table 2, S1P-stimulated",> 20 µM
same,inhibition of S1P-stimulated calcium increases in HTC cells expressing Edg-8,[8]; [10],did not inhibit
same,IC50,"[9]; Table 2, LPA-stimulated",> 20 µM
same,inhibition of LPA-stimulated calcium increases in HTC cells expressing Edg-4,[9]; [10],did not inhibit
"COc1cc(C(=O)c2cc(Cl)ccc2N)cc(OC)c1OC [Compound 104, (2-Amino-5-chlorophenyl)-(3,4,5-trimethoxyphenyl)methanone]",EC50,[1]; agonist,> 25 µM
same,calcium response in HTC cells expressing Edg-6,[1]; [11],did not elicit a calcium response
same,concentration needed relative to S1P for same effect on chemotactic response to exodus-2,[2]; FIG. 11,higher concentrations of 104 than S1P are required
same,effect on chemotaxis of murine CD4 T cells to exodus-2,"[2]; low and high concentrations desensitize, moderate stimulate, FIG. 11",bell-shaped dose dependant response curve
same,Fold Selectivity,[3]; agonist (Table 4),>2.5 Fold
same,migration of treated lymphocytes to exodus-2 in dorsal air-pouch,"[4]; CD4 T cells treated ex vivo, given intraperitoneally, S1P 1 μM",desensitizes the lymphocytes to attraction by exodus-2
same,potency of invasion stimulation relative to S1P,"[5]; HUVEC, FIG. 7",significantly less potent that S1P
same,stimulation of invasion of Human Umbilical Vein Endothelial cells,"[5]; concentrations between 0.5-100 μM, FIG. 7",stimulates invasion
same,EC50,[6]; agonist,> 25 µM
same,calcium response in HTC cells expressing Edg-3,[6]; [11],did not elicit a calcium response
same,EC50,[7]; agonist,> 25 µM
same,calcium response in HTC cells expressing Edg-5,[7]; [11],did not elicit a calcium response
same,EC50,[8]; agonist,> 25 µM
same,calcium response in HTC cells expressing Edg-8,[8]; [11],did not elicit a calcium response
same,EC50,[9]; agonist,> 25 µM
same,calcium response in HTC cells expressing Edg-4,[9]; [11],did not elicit a calcium response
